In brackets after ≈: the same amount, converted by molar mass.
What was measured:
[1] = molecular target: T1, human carbonic anhydrase-2 (Homo sapiens, UniProt P00918); experiment: Carbonic anhydrase assay, carbonic anhydrase-2 (Method 6); format: biochemical; conditions: read-out: Inhibition of Carbonic anhydrase-2 IC50
T1 construct: purchased Sigma C6165
Protocol: 6. Carbonic Anhydrase Assay
The principle of the assay is based on the hydrolysis of 4-nitrophenyl acetate by carbonic anhydrases (Pocker & Stone, Biochemistry, 1967, 6, 668), with subsequent photometric determination of the dye product 4-nitrophenolate at 400 nm by means of a 96-channel spectral photometer.
2 μL of the test compounds, dissolved in DMSO (100-fold final concentration), in a concentration range of 0.03-10 μmol/L (final), was pipetted as quadruplicates into the wells of a 96-hole microtiter plate. Wells that contained the solvent without test compounds were used as reference values (1. Wells without carbonic anhydrase for correction of the non-enzymatic hydrolysis of the substrate, and 2. Wells with carbonic anhydrase for determining the activity of the non-inhibited enzyme).
188 μL of assay buffer (10 mmol/L of Tris/HCl, pH 7.4, 80 mmol/L of NaCl), with or without 3 units/well of carbonic anhydrase-1 [=human carbonic anhydrase-1 (Sigma, #C4396)] in order to determine carbonic anhydrase-1 inhibition or 3 units/well of carbonic anhydrase-2 [=human carbonic anhydrase-2 (Sigma, #C6165)] for measuring carbonic anhydrase-2 inhibition, was pipetted into the wells of the microtiter plate.

[2] = Equilibrium shake flask solubility assay, thermodynamic solubility in water (Method 4a); format: physicochemical; conditions: aqueous buffer, thermodynamic from solid; phosphate buffer pH 6.5, 24 h, room temperature
Protocol: 4. Equilibrium Shake Flask Solubility Assay:
4a) Thermodynamic Solubility in Water
The thermodynamic solubility of compounds in water was determined by an equilibrium shake flask method (see for example: E. H. Kerns, L. Di: Drug-like Properties: Concepts, Structure Design and Methods, 276-286, Burlington, Mass., Academic Press, 2008). A saturated solution of the drug was prepared and the solution was mixed for 24 h to ensure that equilibrium was reached. The solution was centrifuged to remove the insoluble fraction and the concentration of the compound in solution was determined using a standard calibration curve. To prepare the sample, 2 mg solid compound was weighed in a 4 mL glass vial. 1 mL phosphate buffer pH 6.5 was added. The suspension was stirred for 24 hrs at room temperature. The solution was centrifuged afterwards. To prepare the sample for the standard calibration, 2 mg solid sample was dissolved in 30 mL acetonitrile. After sonification the solution was diluted with water to 50 mL. Sample and standards were quantified by HPLC with UV-detection. For each sample two injection volumes (5 and 50 μl) in triplicates were made. Three injection volumes (5 μl, […]) were made for the standard. […]
The areas of sample- and standard injections as well as the calculation of the solubility value (in mg/l) were determined by using HPLC software (Waters Empower 2 FR).

- IC50 [1]: > 10 µM
- solubility at 24 h [2]: 7 µg/mL (≈ 18.1 µM)
SMILES: COc1cc(F)ccc1-c1cc(Nc2cc(CS(C)(=N)=O)ccn2)ncn1 (racemic) [Example 1, (rac)-6-(4-Fluoro-2-methoxyphenyl)-N-{4-[(S-methylsulfonimidoyl)methyl]pyridin-2-yl}pyrimidin-4-amine]
